Test results from ChEMBL document CHEMBL1142207, “Aspirin antagonism in isoniazid treatment of tuberculosis in mice” (2007).
Activity calls are given as the source filed them. The calls are words filed in the database; no cut-off is given here.

What was measured:
[1] = system: Mycobacterium tuberculosis; test: Clearance of Mycobacterium tuberculosis H37Rv in BALB/c mouse lung at 25 mg/kg, po five times/week after 1 month relative to control; assay type: functional, organism-based; design: dose 25 mg/kg
[2] = system: Mycobacterium tuberculosis; test: Clearance of Mycobacterium tuberculosis H37Rv in BALB/c mouse spleen at 25 mg/kg, po five times/week after 1 month relative to control; assay type: functional, organism-based; design: dose 25 mg/kg
[3] = system: Mycobacterium tuberculosis; test: Decrease in spleen infection of BALB/c mouse infected with Mycobacterium tuberculosis H37Rv at 40 mg/kg, po five times/week after 1 month relative to control; assay type: functional
[4] = system: Mycobacterium tuberculosis; test: Decrease in spleen infection of BALB/c mouse infected with Mycobacterium tuberculosis H37Rv at 10 mg/kg, po five times/week after 1 month relative to control; assay type: functional
[5] = system: Mycobacterium tuberculosis; test: Decrease in spleen infection of BALB/c mouse infected with Mycobacterium tuberculosis H37Rv at 20 mg/kg, po five times/week after 1 month relative to control; assay type: functional

| Structure (SMILES) | Activity [1] | Activity [2] | Log10 cfu [3] | Log10 cfu [4] | Log10 cfu [5] |
| --- | --- | --- | --- | --- | --- |
| NNC(=O)c1ccncc1 | Active | Active |  |  |  |
| CC(=O)Oc1ccccc1C(=O)O [ASPIRIN] |  |  | 4.38 | 3.48 | 4.55 |
